This is an account of results in US11072632B2, “Inhibitors of 17β-HSD1, 17β-HSD3 and 17β-HSD10” (UNIVERSITÉ LAVAL, priority 2011, dated 2021).

In series [1] the target is T1, 17β-HSD10 (Homo sapiens, UniProt Q99714).
T1 construct: expressed in transfected cells
T1 sequence (Q99714 1-261): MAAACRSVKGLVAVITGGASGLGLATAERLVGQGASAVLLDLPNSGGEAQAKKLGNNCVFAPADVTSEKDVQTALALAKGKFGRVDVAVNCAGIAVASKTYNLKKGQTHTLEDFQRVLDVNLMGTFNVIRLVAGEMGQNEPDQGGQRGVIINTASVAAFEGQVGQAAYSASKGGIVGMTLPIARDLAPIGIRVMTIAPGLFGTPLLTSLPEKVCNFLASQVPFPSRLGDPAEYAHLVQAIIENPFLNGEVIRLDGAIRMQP
Kind of series: Inhibition of 17β-HSD10 in stably transfected HEK-293 whole cells (E2 into E1). Type of series: cell-based.

Series [2] concerns ovariectomized (OVX) mice. Briefly: In vivo estrogenic activity (uterotrophic assay) in OVX mice. Also on record: species or system mouse. As to conditions: OVX mice, s.c. BID, 7 days. On the procedure:
The mice were fed rodent chow and tap water ad libitum. The animals were ovariectomized (OVX) under isoflurane-anaesthesia via bilateral flank incisions and randomly assigned to groups (5 animals by group). Mice in the OVX control group received the vehicle alone (8% ethanol-0.4% methylcellulose) during the 7-day period. The possible estrogenic activity of tested compounds was evaluated after their administration by subcutaneous (s.c.) injection [1, 10 and 100 μg/kg, s.c., twice daily (BID)] as suspension in 8% ethanol-0.4% methylcellulose to OVX female mice for 7 days. On day 8, the mice were sacrificed by cervical dislocation. The uteri and vagina were rapidly removed, freed from fat and connective tissue and weighed. Results are the means±SEM of 5 mice per group.

Series [3] has as its target T1, 17β-HSD10. As to conditions: read-out: Km of the enzyme for E2 as a substrate; cited from earlier work.
The test system of series [4] is ovariectomized (OVX) BALB/c mice. Briefly: In vivo estrogenicity assay in OVX mice (uterus, vagina weight). The arrangement: species or system mouse. The conditions noted are these: OVX mice, s.c., 0.02 μg/mouse/day. How it is done: Female ovariectomized (OVX) BALB/c mice weighing approximately 20 g were obtained from Charles-River, Inc. (St-Constant, Qc., Canada). The animals were housed 5 per cage. Groups of 5 mice were treated with E1 (0.02 μg in 8% EtOH/92% PG) or 17β-HSD1 inhibitor at 10, 50 and 250 μg (0.1 mL s.c.) daily for 7 days. Animals were killed 24 h after administration of the last dose of compound and uteri and vagina were removed, excised of fat and weighed. Total body weights of mice were also recorded.

The subject of a further series is T-47D cells. Briefly: Inhibition of E1-stimulated T-47D cell proliferation. It is filed as cell-based, human. As to conditions: E1 0.1 nM, no inhibitor; control 100%. How it is done:
Quantification of cell growth was determined by using CellTiter 96®Aqueous Solution Cell Proliferation Assay (Promega, Nepean, ON, Canada) following the manufacturer's instructions. T-47D cells were resuspended with the medium supplemented with insulin (50 ng/mL) and 5% dextran-coated charcoal treated FBS rather than 10% FBS to remove remaining hormones. Aliquots (100 μL) of the cell suspension were seeded in 96-well plates (3000 cells/well). After 48 h, the medium was changed with a new one containing an appropriate concentration of products to be tested and was replaced every 2 days. Cells have grown either in absence or presence of the compounds for 7 days. To determine the proliferative (estrogenic) activity, the estrogen-sensitive T-47D cells were grown in absence (basal cell proliferation was fixed as 100%) or presence of compounds to be tested at 0.5 to 10 μM. The potent estrogen E2 was used as a reference control. […] The cell proliferation without E1±inhibitor (control) was fixed as 100%. To determine the potential antiestrogenic activity of inhibitor Compound V, the T-47D (ER^+) cells were grown in the presence of estrogen E2 (0.1 nM) and pure antiestrogen EM-139 (0.5 μM) or inhibitor Compound V (0.5 μM). The cell proliferation without E2 and tested compounds (control) were fixed as 100%.

The next series has as its system T-47D tumors. Kind of series: Inhibition of E1-stimulated T-47D tumor growth in nude OVX mice (xenograft). It is filed as in vivo, mouse. On the procedure: Female OVX BALB/c athymic nude mice weighing approximately 20 g were obtained from Charles-River, Inc. (St-Constant, Qc., Canada). The animals were housed 5 per cage. […] T-47D tumor growth was stimulated using 0.1 μg of E1 s.c. per mouse per day for 15 days. From day 16, animals with tumors were randomized in function of tumor volume and separated into three groups. Group 1 (control mice) was treated s.c. with 100 μL of vehicle alone (8% EtOH/92% PG) per mouse per day. Group 2 (E1 0.1 μg) was treated with E1 (0.1 μg/day, s.c. per mouse) during 32 days. Group 3 (E1 0.1 μg+Compound V 250 μg) was treated with E1 (0.1 μg/day) and Compound V (250 μg/day) per mouse in a combined s.c. injection for 32 days. The mice were weighed at start and volumes of tumors were determined by external caliper twice a week and the greatest longitudinal diameter (length) and the greatest transverse diameter (width) were determined. Tumor volume based on caliper measurements was calculated by the modified ellipsoidal formula: Tumor volume=½(length×width^2) (Jensen M M, Jorgensen J T, Binderup T, Kjaer A. Tumor volume in subcutaneous mouse xenografts measured by microCT is more accurate and reproducible than determined by 18F-FDG-microPET or external caliper. BMC Med Imaging 2008; 8:16). At the end of the studies the mice were terminally anaesthetized, final body weights and tumor sizes were determined. Uteri and vagina were removed, excised of fat and weighed (Day J M, Foster P A, Tutill H J, Parsons M F, Newman S P, Chander S K, et al. 17beta-hydroxysteroid dehydrogenase type 1, and not type 12, is a target for endocrine therapy of hormone-dependent breast cancer. Int J Cancer 2008; 122:1931-40; Husen B, Huhtinen K, Poutanen M, Kangas L, Messinger J, Thole H. Evaluation of inhibitors for 17beta-hydroxysteroid dehydrogenase type 1 in vivo in immunodeficient mice inoculated with MCF-7 cells stably expressing the recombinant human enzyme. Mol Cell Endocrinol 2006; 248:109-13; Husen B, Huhtinen K, Saloniemi T, Messinger J, Thole H H, Poutanen M: Human hydroxysteroid (17-beta) dehydrogenase 1 expression enhances estrogen sensitivity of MCF-7 breast cancer cell xenografts. Endocrinology 2006; 147:5333-9; Messinger J, Hirvela L, Husen B, Kangas L, Koskimies P, Pentikainen O, et al. New inhibitors of 17beta-hydroxysteroid dehydrogenase type 1. Mol Cell Endocrinol 2006; 248:192-8).

A value given as a limit tells only on which side of the number the result lay.

Regarding `C[C@]12CC[C@@H]3c4ccc(O)cc4CC[C@H]3[C@@H]1CC[C@@H]2O` [17β-E2 (1), 17β-estradiol], at 17β-HSD10 [1], the half-inhibitory concentration (IC50) was more than 10 µM. Moreover, the uterine weight in series [2] (1 μg/kg) was 125 mg; in series [2] (10 μg/kg), 155 mg; in series [2] (100 μg/kg), 160 mg. Further, the Km at 17β-HSD10 [3] is 43 µM.

On to `C[C@]12CC[C@@H]3c4ccc(O)cc4CC[C@H]3[C@@H]1CCC2=O` [Compound E1, estrone, reference compound], for which, in series [4], the “increase in uterine weight compared to OVX-CTR (times)” value worked out at 2.5 and the uterine weight came to 55 mg. Further, in the series on T-47D cells, the “cell growth induced by E1 alone” value was found to be 250%. For the same compound, the “tumor size, % of initial size” value in the series on T-47D tumors (E1 0.1 μg/day s.c. alone, 32 days) came out at 136%. Moreover, in the series with T-47D tumors (mouse, in vivo), the “effect on mouse weight” value is “no effect”.

The term IC50 denotes the concentration that gives 50% inhibition. Read a high IC50 as a need for much substance. One may read the Km as the substrate concentration at which the rate is half of its maximum.
